Biological target: T1, neutral/alkaline ceramidase derived from a mouse liver (Mus musculus, UniProt Q9JHE3)
T1 construct: the ceramidase purified from the mouse liver lacked the peptide of the N-terminal portion of the polypeptides encoded by the above-mentioned ORF; from tissue; host or cells: mouse liver (membrane fraction, purified by chromatography)
Assay: Substrate specificity of the ceramidase (degradation of 14C-labeled sphingolipids, TLC)
Type: biochemical
Settings: for Degradation Ratio (%): 5 milliunits ceramidase on 100 pmol 14C-labeled sphingolipid, 25 mM Tris-HCl pH 7.5, 1% sodium cholate, 37° C., 24 hours; for Substrate specificity (in words): as shown in Table 1
Experimental: Five milliunits of the ceramidase of the present invention is acted on 100 pmol of various kinds of sphingolipids, in which the fatty acid moiety is labeled with ^14C-radioactive isotope, in […] of 25 mM Tris-hydrochloric acid buffer, pH 7.5, containing 1% sodium cholate at 37° C. for 24 hours. The reaction mixture is developed on silica gel thin layer chromatography. Thereafter, the ^14C-labeled sphingolipids and the ^14C-labeled fatty acids generated by the enzymatic reaction are detected and quantified by Imaging Analyzer BAS1000 (manufactured by Fuji Photo Film). The degradation ratio is calculated from the obtained values.

T1 sequence (Q9JHE3 75-756): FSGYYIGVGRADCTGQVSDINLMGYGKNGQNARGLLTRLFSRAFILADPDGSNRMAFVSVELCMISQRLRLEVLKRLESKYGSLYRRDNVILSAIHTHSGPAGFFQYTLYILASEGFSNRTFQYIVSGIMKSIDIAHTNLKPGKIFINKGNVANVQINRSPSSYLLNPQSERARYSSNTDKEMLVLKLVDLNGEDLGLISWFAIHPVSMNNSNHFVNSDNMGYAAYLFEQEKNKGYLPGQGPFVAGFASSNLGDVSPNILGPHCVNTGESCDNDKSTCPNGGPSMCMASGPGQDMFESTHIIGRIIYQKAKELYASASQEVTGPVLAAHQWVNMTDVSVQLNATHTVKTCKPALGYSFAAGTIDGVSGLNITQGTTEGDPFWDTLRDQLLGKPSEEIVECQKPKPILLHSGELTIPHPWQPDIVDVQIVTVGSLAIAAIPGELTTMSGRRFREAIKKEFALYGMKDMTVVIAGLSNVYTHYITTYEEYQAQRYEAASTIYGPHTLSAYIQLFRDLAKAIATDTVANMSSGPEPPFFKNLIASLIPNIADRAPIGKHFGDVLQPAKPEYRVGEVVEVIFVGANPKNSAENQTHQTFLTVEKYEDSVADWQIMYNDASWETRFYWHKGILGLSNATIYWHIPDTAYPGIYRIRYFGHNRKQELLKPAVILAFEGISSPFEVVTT

Compound | Degradation Ratio (%) | Substrate specificity (in words)
CCCCCCCCCCCCC/C=C/[C@@H](O)[C@H](CO)NC(=O)CCCCCNc1ccc([N+](=O)[O-])c2nonc12 [6-((N-(7-nitrobenz-2-oxa-1,3-diazole-4-yl)amino)hexanoyl)sphingosine] | 2 | 
CCCCCCCCCCCCC/C=C/[C@@H](O)[C@H](CO)NC(=O)CCCCCCCCCCCNc1ccc([N+](=O)[O-])c2nonc12 [12-((N-(7-nitrobenz-2-oxa-1,3-diazol-4-yl)amino)dodecanoyl)sphingosine] | 97 | 
CCCCCCCCCCCCC/C=C/[C@@H](O)[C@H](CO)NC(=O)CCCCCCCCCCC [N-Lauroylsphingosine] | 63 | 
CCCCCCCCCCCCCCCC(=O)N[C@@H](CO)[C@H](O)[C@H](O)CCCCCCCCCCCCCC [N-Palmitoylphytosphingosine] | 5 | 
CCCCCCCCCCCCCCCC(=O)N[C@@H](CO)[C@H](O)CCCCCCCCCCCCCCC [N-Palmitoylsphinganine] | 59 | 
Galactosylceramide | 0 | not acting
Galb1-3GalNAcb1-4(NeuAca2-3)Galb1-4G1cb1-1′Cer [GM1a] | 0 | not acting

Second part, the compound after the results:

Degradation Ratio (%) | Substrate specificity (in words) | Compound
93 |  | CCCCCCCCCCCCC/C=C/[C@@H](O)[C@H](CO)NC(=O)CCCCCCCCCCCCCCC [N-Palmitoylsphingosine]
2 |  | CCCCCCCCCCCCCCCCCC(=O)N[C@@H](CO)[C@H](O)[C@H](O)CCCCCCCCCCCCCC [N-Stearoylphytosphingosine]
40 |  | CCCCCCCCCCCCCCCCCC(=O)N[C@@H](CO)[C@H](O)CCCCCCCCCCCCCCC [N-Stearoylsphinganine]
83 |  | CCCCCCCCCCCCC/C=C/[C@@H](O)[C@H](CO)NC(=O)CCCCCCCCCCCCCCCCC [N-Stearoylsphingosine]
0 | not acting | Sphingomyelin
0 | not acting | Sulfatide
